Here are results for nine compounds from PubChem BioAssay (NCI).

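Results reflect a 48-hour exposure of cells in 96-well plates to compound at five concentrations. GI50 is the concentration that inhibits growth by half. TGI denotes the concentration required for complete inhibition of growth.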

What all share (assay): growth of human tumour cells (NCI), 48 h
For assay [1], the system named is SNB-19 CNS.
For assay [2], the system named is SW-620 colon.
For assay [3], the system named is HOP-92 NSCLC.
The subject of assay [4] is HOP-62 NSCLC.
The test system of assay [5] is CCRF-CEM leukemia.
Assay [6] deals with NCI-H226 lung.
Assay [7] concerns MDA-MB-435.
Assay [8] relates to ACHN renal.

Consider `COC(CCP(=O)(c1ccccc1)c1ccccc1)(C(=O)c1ccccc1)c1ccccc1` (stereo unspecified), for which the GI50 in assay [1] was 5.75 µM; in assay [2], 3.86 µM; in assay [3] it was 1.42 µM; in assay [4] it was 11 µM; in assay [5] it was 2.27 µM; in assay [6], 2.19 µM. Besides, the values for the GI50 in assay [7] and in assay [8] were 3.64 µM and 4.98 µM, respectively. Moreover, the TGI is 19.1 µM in assay [1]; 15.7 µM in assay [2]; 16.6 µM in assay [3]; 24.8 µM in assay [4]; 42 µM in assay [5]; 15.7 µM in assay [6]. Moreover, the TGI was determined as 15 µM in assay [7] and 17 µM in assay [8].

As to `COc1ccc(C(O)CNC(=O)c2ccccc2)cc1` (stereo unspecified), the TGI in assay [1], in assay [2], in assay [3], in assay [4], in assay [5] and in assay [6] was over 100 µM in each case. Besides, the TGI in assay [7] and in assay [8] was over 100 µM throughout.

In the case of `COc1cccc(/C=N\Nc2ccc([N+](=O)[O-])cn2)c1O`, the GI50 in assay [1] is 3.13 µM; in assay [2] it was 3.94 µM; in assay [3], 2.8 µM; in assay [4], 3.89 µM; in assay [5], 3.42 µM; in assay [6], 3.72 µM. In addition, the values for the GI50 in assay [7] and in assay [8] were 5.23 µM and 2.33 µM, respectively. The TGI is 27.8 µM in assay [1]; over 100 µM in assay [2]; 9.44 µM in assay [3]; 25.5 µM in assay [4]; 38.2 µM in assay [5]; 26.2 µM in assay [6]. Further, the results for the TGI in assay [7] and in assay [8] were over 100 µM and 7.61 µM, respectively.

For `COc1cnc2c(c1)C(=O)c1c-2n(CCCn2ccnc2)c(=O)c2cc(Cl)ccc12`, the GI50 is 0.0321 µM in assay [1]; 0.0262 µM in assay [2]; 0.0726 µM in assay [3]; 0.0211 µM in assay [4]; under 0.01 µM in assay [5]; 0.0464 µM in assay [6]. Besides, the GI50 was 0.145 µM in assay [7] and 0.0301 µM in assay [8]. The TGI is over 100 µM in assay [1]; over 100 µM in assay [2]; 56.2 µM in assay [3]; 0.0879 µM in assay [4]; over 100 µM in assay [5]; 0.892 µM in assay [6]. In addition, the TGI in assay [7] is 1.29 µM; in assay [8], 61.4 µM.

Regarding `COC(=O)CCC(=O)c1c(C)[nH]c(/C=C2\N=C(c3ccc[nH]3)C=C2OC)c1C`, the GI50 in assay [1] is 3.2 µM; in assay [2] it was 0.318 µM; in assay [3], 0.486 µM; in assay [4], 0.85 µM; in assay [5], 0.199 µM; in assay [6], 1.08 µM. The figures for the GI50 in assay [7] and in assay [8] were 0.426 µM and 0.783 µM, respectively. Further, the TGI amounted to 14.2 µM in assay [1]; 1.32 µM in assay [2]; 1.55 µM in assay [3]; 2.33 µM in assay [4]; 2.37 µM in assay [5]; 3.27 µM in assay [6]. For the same compound, the TGI came to 1.63 µM in assay [7] and 4.18 µM in assay [8].

For `COCCOC(=O)C1=C(C)NC2=C(C(=O)CC(c3ccccc3OC)C2)C1c1cccc(O)c1` (stereo unspecified), the GI50 in assay [1] is 16 µM; in assay [2], 12.5 µM; in assay [3], 1.04 µM; in assay [4] it was 5.84 µM; in assay [5] it was 11.3 µM; in assay [6], 8.64 µM. Further, the GI50 was 5.31 µM in assay [7] and 19.1 µM in assay [8]. Besides, the TGI is over 100 µM in assay [1]; 33.5 µM in assay [2]; 15.4 µM in assay [3]; 44.3 µM in assay [4]; 83.6 µM in assay [5]; 35.7 µM in assay [6]. The TGI was 25.4 µM in assay [7] and 71.2 µM in assay [8].

In the case of `Cn1c(COC(=O)N2CCCCC2)nc2c(N3CCOCC3)nc(-c3ccccc3)nc21`, the GI50 in assay [1] is 1.51 µM; in assay [2] it was 0.235 µM; in assay [3], 0.492 µM; in assay [4], 1.42 µM; in assay [5] it was 0.307 µM; in assay [6] it was 1.59 µM. Also, the results for the GI50 in assay [7] and in assay [8] were 0.58 µM and 0.352 µM, respectively. For the same compound, the TGI in assay [1] was determined as 2.86 µM; in assay [2], 0.539 µM; in assay [3] it was 1.93 µM; in assay [4], 3.21 µM; in assay [5] it was 1.48 µM; in assay [6], 3.62 µM. Further, the TGI in assay [7] was 1.86 µM; in assay [8] it was 1.29 µM.

`ClCCN(CCCl)c1ccc(-n2cnc3c(Cl)ncnc32)cc1`: the GI50 in assay [1] was 5.4 µM; in assay [2] it was 1.76 µM; in assay [3], 10.9 µM; in assay [4], 6.94 µM; in assay [5], 3.05 µM; in assay [6], 13.3 µM. The GI50 in assay [7] was 2.04 µM; in assay [8], 1.84 µM. Further, the TGI in assay [1] was 17.4 µM; in assay [2] it was 3.29 µM; in assay [3] it was 26.1 µM; in assay [4], 20.2 µM; in assay [5] it was over 100 µM; in assay [6], 27.7 µM. Further, the results for the TGI in assay [7] and in assay [8] were 4.12 µM and 3.54 µM, respectively.

Regarding `CCN(CC)c1ccc2c(c1)Oc1nc(N)c(C#N)c(N)c1C2Sc1ccc(SC)cc1` (stereo unspecified), the GI50 in assay [1] is 1.52 µM; in assay [2] it was 1.88 µM; in assay [3], 1.72 µM; in assay [4], 1.76 µM; in assay [5], 1.27 µM; in assay [6], 1.53 µM. Also, the figures for the GI50 in assay [7] and in assay [8] were 1.86 µM and 1.68 µM, respectively. Moreover, the TGI was 2.9 µM in assay [1]; 3.68 µM in assay [2]; 3.43 µM in assay [3]; 3.26 µM in assay [4]; 5.02 µM in assay [5]; 2.89 µM in assay [6]. Besides, the values for the TGI in assay [7] and in assay [8] were 3.58 µM and 3.04 µM, respectively.
